These results are taken from patent US20200239398A1, “METHYLENE-CYCLOALKYLACETATE DERIVATIVES AND THEIR USE IN TREATMENT OF NEUROTROPIC CONDITIONS” (Yissum Research Development Company of The Hebrew …, priority 2018, published 2020).

pIC50: −log10 of the molar value.

For the assay, the target named is T1, N-methyl-D-aspartate (NMDA) Glutamate Receptor 1A/2B (NMDAR (1A/2B)) (Homo sapiens, UniProt Q05586+Q13224).
T1 construct: DiscoverX (SAFETYscan contract panel)
In words: SAFETYscan NMDAR (1A/2B) Ion channel. Format: cell-based. As to conditions: Blocker mode; reference compound; read-out: RC50 (the source's name).

T1 sequence (Q13224 27-1484, other chains not shown): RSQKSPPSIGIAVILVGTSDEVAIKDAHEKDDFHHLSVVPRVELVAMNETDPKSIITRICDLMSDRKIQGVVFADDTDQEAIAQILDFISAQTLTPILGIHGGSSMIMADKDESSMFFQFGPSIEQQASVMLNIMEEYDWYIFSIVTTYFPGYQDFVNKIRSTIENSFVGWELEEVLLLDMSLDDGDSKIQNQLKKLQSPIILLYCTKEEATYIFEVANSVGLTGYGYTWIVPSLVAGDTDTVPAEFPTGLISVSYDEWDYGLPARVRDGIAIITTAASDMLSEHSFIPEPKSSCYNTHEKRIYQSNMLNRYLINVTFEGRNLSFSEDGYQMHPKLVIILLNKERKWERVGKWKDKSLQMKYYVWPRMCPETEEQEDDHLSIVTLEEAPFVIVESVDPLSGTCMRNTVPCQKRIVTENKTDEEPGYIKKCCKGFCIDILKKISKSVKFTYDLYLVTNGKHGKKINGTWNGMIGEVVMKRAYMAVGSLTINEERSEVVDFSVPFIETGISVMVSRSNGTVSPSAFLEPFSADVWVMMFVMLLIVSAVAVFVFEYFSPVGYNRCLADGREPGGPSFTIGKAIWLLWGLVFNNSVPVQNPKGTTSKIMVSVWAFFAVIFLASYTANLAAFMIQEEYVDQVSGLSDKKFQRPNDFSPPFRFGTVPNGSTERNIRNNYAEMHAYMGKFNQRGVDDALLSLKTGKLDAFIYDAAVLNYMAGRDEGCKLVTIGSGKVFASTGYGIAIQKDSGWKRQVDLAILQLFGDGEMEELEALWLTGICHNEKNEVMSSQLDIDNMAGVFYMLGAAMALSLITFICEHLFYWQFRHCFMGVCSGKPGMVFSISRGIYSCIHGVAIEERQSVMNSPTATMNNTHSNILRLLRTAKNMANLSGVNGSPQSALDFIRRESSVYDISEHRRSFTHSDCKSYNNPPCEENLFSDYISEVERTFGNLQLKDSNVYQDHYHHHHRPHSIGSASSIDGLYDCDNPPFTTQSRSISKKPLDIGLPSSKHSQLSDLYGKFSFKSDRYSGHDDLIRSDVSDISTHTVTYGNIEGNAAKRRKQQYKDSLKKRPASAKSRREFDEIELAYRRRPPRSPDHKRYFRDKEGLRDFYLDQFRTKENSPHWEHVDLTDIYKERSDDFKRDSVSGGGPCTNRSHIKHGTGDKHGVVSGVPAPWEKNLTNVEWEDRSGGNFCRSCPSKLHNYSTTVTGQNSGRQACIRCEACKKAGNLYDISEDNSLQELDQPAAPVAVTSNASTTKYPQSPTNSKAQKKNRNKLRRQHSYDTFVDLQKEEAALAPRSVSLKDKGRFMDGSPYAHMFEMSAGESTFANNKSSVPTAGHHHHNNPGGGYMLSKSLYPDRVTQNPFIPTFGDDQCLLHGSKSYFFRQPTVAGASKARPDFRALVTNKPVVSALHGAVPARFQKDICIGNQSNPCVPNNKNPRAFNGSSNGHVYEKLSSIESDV

Turning to `C[C@]12N[C@H](Cc3ccccc31)c1ccccc12` [MK 801, reference compound], the pIC50 was 7.28.
